Laboratory results from patent US10935540B2, “GDF-15 as a haematological toxicity biomarker” (Novartis AG, priority 2015, dated 2021).
Blank lines part the entries; values can stand above or below the compound they belong to.

Legend:
patients = assay: Clinical analysis of serum GDF-15 (ELISA) versus platelet counts in patients treated with Compound A; assay type: in vivo, human; conditions: 21 patients, continuous three times weekly oral administration; preliminary analysis (FIG. 3)
Method: Patients were treated with (5)-1-(4-Chloro-phenyl)-7-isopropoxy-6-methoxy-2-(4-{methyl-[4-(4-methyl-3-oxo-piperazin-1-yl)-trans-cyclohexylmethyl]-amino}-phenyl)-1,4-dihydro-2H-isoquinolin-3-one (Compound A). Dose range was from 10 to 500 mg three times a week (3QW) with continuous or 2 week on 1 week off dosing regimen. Serum samples were collected from each subject at pre-dose and from 0.5 to 6 h post-dose on the first treatment day.
The serum level of GDF-15 expression was measured using enzyme-linked immunosorbent assay (ELISA; R&D Systems kit DGD150).
Clinical data (including platelet counts) were collected from all patients during the course of the treatment period.
Maximum observation period was 448 days on available platelet data.
A preliminary data analysis of (S)-1-(4-Chloro-phenyl)-7-isopropoxy-6-methoxy-2-(4-{methyl-[4-(4-methyl-3-oxo-piperazin-1-yl)-trans-cyclohexylmethyl]-amino}-phenyl)-1,4-dihydro-2H-isoquinolin-3-one effect on GDF-15 and platelet counts for 21 patients treated on a continuous three times weekly oral administration of (S)-1-(4-Chloro-phenyl)-7-isopropoxy-6-methoxy-2-(4-{methyl-[4-(4-methyl-3-oxo-piperazin-1-yl)-trans-cyclohexylmethyl]-amino}-phenyl)-1,4-dihydro-2H-isoquinolin-3-one was conducted. The conducted data analysis is represented in a plot on FIG. 3. In this plot, each point represents an individual patient. […]

[1] = system: patients with liposarcomas; conditions: cited from earlier work
animal model = conditions: cited from earlier work
thrombopoesis = conditions: previous studies; cited from earlier work
[2] = system: patients with solid tumors; assay: Maximum change of platelet and neutrophil count versus GDF-15 fold change in patients with solid tumors receiving compound of formula I; assay type: in vivo, human; conditions: regimen 1A (q3w) 12.5-350 mg or regimen 1B 120 mg
Method: Maximum change of platelet count (FIG. 7) and neutrophil count (FIG. 8) and the GDF-15 values were determined for patients with solid tumors receiving compound of formula I, i.e. (S)-5-(5-Chloro-1-methyl-2-oxo-1,2-dihydro-pyridin-3-yl)-6-(4-chloro-phenyl)-2-(2,4-dimethoxy-pyrimidin-5-yl)-1-isopropyl-5,6-dihydro-1H-pyrrolo[3,4-d]imidazol-4-one, on the first day of a three week cycle (herein also referred to as regimen 1A or q3w) in doses of 12.5 mg (A), 25 mg (B), 50 mg (C), 100 mg (D), 200 mg (E), 250 mg (F), 350 mg(G) or on the first and eighth day of a 4 week cycle (herein also referred to as regimen 1B) in a dose of 120 mg (I). The left graphs show the maximum platelet count change vs. GDF-15 fold change, the GDF-15 being measured on day 1 of the first cycle (C1D1). The right graphs show the maximum platelet count change vs. GDF-15 fold change.
The platelet/neutrophil count was determined before receipt of first dose (baseline) and on day 1, 7 and 15 of the first and second cycle for regimen 1A (A-G) or on day 1, 8, 14, 22 of the first and second cycle for regimen 1B (I) and the maximum platelet change value in comparison to the baseline was selected. The “Change of platelet/neutrophile counts” value is calculated as post-baseline value minus baseline value and given in number of platelets/neutrophils per microliter of blood. […]

cycle 1 day 1 GDF-15 increase from baseline associated with a higher occurrence of platelet counts dropping below 150 G/L (grade 1 thrombocytopenia CTCAE V4) (patients): more than 25%
SMILES: COc1cc2c(cc1OC(C)C)[C@H](c1ccc(Cl)cc1)N(c1ccc(N(C)C[C@H]3CC[C@H](N4CCN(C)C(=O)C4)CC3)cc1)C(=O)C2 [Compound A, (S)-1-(4-Chloro-phenyl)-7-isopropoxy-6-methoxy-2-(4-{methyl-[4-(4-methyl-3-oxo-piperazin-1-yl)-trans-cyclohexylmethyl]-amino}-phenyl)-1,4-dihydro-2H-isoquinolin-3-one]

SMILES: CCOc1cc(C(C)(C)C)ccc1C1=N[C@@](C)(c2ccc(Cl)cc2)[C@@](C)(c2ccc(Cl)cc2)N1C(=O)N1CCN(CCCS(C)(=O)=O)CC1 [RG7112]
major dose-limiting toxicity ([1]; RG7112 administration): thrombocytopenia
patients with induced thrombocytopenia ([1]; single-agent RG-7112, patients with liposarcomas): 40 % of patients
time course of drug-induced thrombocytopenia (animal model): occurred rather late during the treatment period and persisted after drug discontinuation
effect on thrombopoesis (thrombopoesis): impairs thrombopoesis

correlation of GDF-15 increase with platelet count change ([2]; seen already for GDF-15 C1D1 24 h post-dose (FIG. 7)): correlates with a decrease
correlation of GDF-15 increase with neutrophil count change ([2]; seen already for GDF-15 C1D1 24 h post-dose (FIG. 8)): correlates with a decrease
SMILES: COc1ncc(-c2nc3c(n2C(C)C)[C@H](c2ccc(Cl)cc2)N(c2cc(Cl)cn(C)c2=O)C3=O)c(OC)n1 [compound of formula I, (S)-5-(5-Chloro-1-methyl-2-oxo-1,2-dihydro-pyridin-3-yl)-6-(4-chloro-phenyl)-2-(2,4-dimethoxy-pyrimidin-5-yl)-1-isopropyl-5,6-dihydro-1H-pyrrolo[3,4-d]imidazol-4-one]
